Test results: publication PMC9620869 (Cancer Research, 2022)

Experiments:
[1] = system: hiPSC-CMs; test: hiPSC-CM contractility; format: cell-based; conditions: Homo sapiens, 96 h, read-out: hiPSC-CM contractility IC50
[2] = oral dose escalation, maximal dose 60 mg/kg, 30 days
[3] = system: serum cardiac Troponin-I; conditions: 30 mg/kg oral daily, end of treatment
[4] = in vivo; conditions: male, C57Bl/6, mouse, plasma, po, 10 mg/kg
[5] = system: HMVEC-Cs; test: Vasculogenesis assay; conditions: Homo sapiens, 6 h

## Cc1ccc(C(=O)Nc2ccc(CN3CCN(C)CC3)c(C(F)(F)F)c2)cc1C#Cc1cnc2cccnn12 [Ponatinib]
[1]
  IC50: > 1500 nM
[2]
  dose causing lethality: 50 mg/kg
[3]
  serum cardiac Troponin-I levels compared with vehicle alone: significantly elevated levels
[4]
  Cmax: 200 ng/mL
  Tmax: 2 h
[5]; read-out: Vascular profile IC50
  IC50: ~200 nM
[5]; read-out: Vasculotoxicity (EC50, μmol/L) mean ± SEM
  EC50: 0.2 ± 0.04 µmol/L
